# Like-named read-outs stand apart in the source and are kept apart here.
# Legend:
# MTT reduction = format: cell-based; conditions: read-out: MTT TC50
# Description: Tetrazolium Dye Reduction: 3-[4,5-dimethylthiazol-2-yl]
# Dosing solutions were prepared in complete culture medium.
# C32 cells [1] = test: Intracellular total glutathione (GSH); conditions: C32, 24 HR
# Description: (§1) Intracellular Glutathione (GSH) Levels: Intracellular glutathione levels were determined essentially as described by Griffith (1980) with modifications. At the end of the exposure period, the medium was removed from the cells and metaphosphoric acid (MPA) was added to each well. Plates were then shaken for 5 min at room temperature and stored at −20° C. until needed.
# (§2) The sample plates were thawed just prior to analysis and centrifuged at >2000×g for at least 2 min. Sample aliquots were removed and transferred to a clean 96-well plate along with appropriate standard curve controls. Sample pH was neutralized just prior to analysis and each well received an aliquot of sodium phosphate reaction buffer containing EDTA, DTNB, NADPH, and glutathione reductase. The plates were mixed for 15-30 min at room temperature and glutathione content was determined calorimetrically with a Packard Fusion or equivalent reader at 415 nm.
# (§3) Intracellular Glutathione (GSH) Levels: The assay is based on the concept that all GSH is oxidized to GSSG by DTNB reagent. Two molecules of GSH are required to make one molecule of GSSG. Total GSH was determined by reducing GSSG to 2GSH with glutathione reductase. A standard curve was prepared with oxidized glutathione (GSSG) over a range of concentrations. These concentrations are then converted to glutathione equivalents (GSX) essentially by multiplying the GSSG standard concentrations by 2. The amount of GSX expressed as pmoles/well was determined using the standard curve and regression analysis.
# (§4) The test compound consisted of two parts mixed in a constant ratio of 5:1. The final test mixture consisted of Test mix 1 and Test mix 2, which were received as frozen solutions. The test mixture was tested in a ratio of 5:1 COMP A in five different cell types which included the following: SK-MEL28, human hepatocytes, HUVEC, C32, and NHEM cells. Cells were seeded into 96-well plates and cultured in medium containing 10% bovine serum. Following an equilibration period of 48 hr, the cells were treated with the test compound mix at concentrations of COMP A (μg/mL)=(250:50), (125:25), (25:12.5), (12.5:2.5), (2.5:1.25), (1.25:0.25), and (0.25:0.05) for 24 hr (overnight) at 37° C. in 5% CO2. […] Following an equilibration period of 4 hr, the cells were treated with the test compound mix at concentrations of COMP A (μg/mL)=(250:50), (125:25), (25:12.5), (12.5:2.5), (2.5:1.25), (1.25:0.25), and (0.25:0.05) for 24 hr (overnight) at 37° C. in 5% CO2.
# (§5) Experimental Protocol: The test compounds were shipped on dry ice for testing. The compounds were stored frozen at −80° C. until needed. Dosing solutions were prepared in complete culture medium. SK-MEL28, human hepatocytes, HUVEC, C32, and NHEM cells were used as the test systems. Cells were seeded into 96-well plates and allowed to equilibrate for approximately 48 hr. Following the equilibration period the cells were exposed to the test compound mix at concentrations of COMP A (μg/mL)=(250:50), (125:25), (25:12.5), (12.5:2.5), (2.5:1.25), (1.25:0.25), and (0.25:0.05). Solubility was determined by Nephalometry techniques immediately after dosing and prior to harvesting the cells at 24 hr. Following the exposure period, the cells or their supernatant (culture medium) were analyzed for changes in cell proliferation, membrane leakage, mitochondrial function, oxidative stress, and apoptosis. The resultant exposure concentration response curves were graphed and analyzed for determining the concentration that produced a half maximal response or TC50.
# HUVEC [2] = test: Intracellular total glutathione (GSH); conditions: HUVEC, 24 HR
# Description: as §1, §2, §3, §4, §5
# human hepatocytes [3] = test: Intracellular total glutathione (GSH); conditions: 24 HR
# Description: as §1, §2, §3, §4, §5
# C32 cells [4] = test: Membrane lipid peroxidation (8-isoprostane ELISA); conditions: C32, 24 HR
# Description: (§6) Lipid Peroxidation Measured as 8-Isoprostane (8-ISO): 8-ISO levels were determined using an ELISA. 8-ISO is a member of a family of eicosanoids produced non-enzymatically by random oxidation of tissue phospholipids by oxygen radicals. Therefore, an increase in 8-ISO is an indirect measure of increased lipid peroxidation (Vacchiano and Tempel, 1994). At the end of the exposure period, plates were either analyzed immediately or stored at −80° C. until needed for analysis. Color development, which is […] to the amount of 8-ISO present in the sample, was read on a Packard Fusion or equivalent plate reader at 415 nm.
# (§7) Lipid Peroxidation Measured as 8-Isoprostane (8-ISO): Background absorbance produced from Ellman's reagent is subtracted from all wells. Non-specific binding is subtracted from the maximum binding wells to give a corrected maximum binding expressed as Bo. The percent of bound (B) relative to maximum binding capacity (Bo) for all unknown samples and for standards was determined an expressed as (% B/Bo). The % B/Bo for standards was plotted against the log of 8-ISO added to yield the final standard curve. This curve was used to convert % B/Bo to pg 8-ISO/mL of sample.
# as §4, §5
# HUVEC [5] = test: Membrane lipid peroxidation (8-isoprostane ELISA); conditions: 24 HR
# Description: as §6, §7, §4, §5
# NHEM cells = test: Membrane lipid peroxidation (8-isoprostane ELISA); conditions: 24 HR
# Description: as §6, §7, §4, §5
# human hepatocytes [6] = test: Membrane lipid peroxidation (8-isoprostane ELISA); conditions: 24 HR
# Description: as §6, §7, §4, §5
SMILES,"CC50 at 24 h (MTT reduction; human, C32 cells, C32, 24 HR)","CC50 at 24 h (MTT reduction; human, HUVEC)",Percent Change in Total GSH (C32 cells [1]),Percent Change in Total GSH (HUVEC [2]),Percent Change in Total GSH (human hepatocytes [3]),Membrane Lipid Peroxidation (C32 cells [4]),Membrane Lipid Peroxidation (HUVEC [5]),Membrane Lipid Peroxidation (NHEM cells),Membrane Lipid Peroxidation (human hepatocytes [6]),CC50 at 24 h (MTT reduction; human hepatocytes)
"CC[C@@]1(O)C(=O)OCc2c1cc1n(c2=O)Cc2cc3ccccc3nc2-1 [CAMPTOTHECIN, Camptothecin]",213 µM,41 µM,−41.1%,−85.8%,−69.9%,0,2 (2 = Concentration related increase with maximum values ≧15 pg/mL),1 (1 = Modest increase with maximum values ≦15 pg/mL),1 (1 = Modest increase with maximum values ≦15 pg/mL),–
"C=C(C)[C@H]1Cc2c(ccc3c2O[C@@H]2COc4cc(OC)c(OC)cc4[C@@H]2C3=O)O1 [ROTENONE, Rotenone]",–,–,12.9%,11.3%,95.9%,0,1 (1 = Modest increase with maximum values ≦15 pg/mL),2 (2 = Concentration related increase with maximum values ≧15 pg/mL),0,3 µM

# Source: patent US7615361B2, “Toxicity screening methods” (Ceetox, Inc., priority 2006, dated 2009)
